Results as given in PMC7565406, “BMS-599626, a Highly Selective Pan-HER Kinase Inhibitor, Antagonizes ABCG2-Mediated Drug Resistance” (Cancers, 2020).

Key:
ABCG2 [1] = target: T1, ABCG2 (Homo sapiens, UniProt Q9UNQ0); assay: vanadate-sensitive ATPase assay in ABCG2 membrane vesicles; supported by [3H]-mitoxantrone accumulation and efflux in cells; assay type: biochemical; parameters: membrane vesicles prepared from ABCG2 expressing High-five insect cells
T1 sequence (Q9UNQ0 1-655): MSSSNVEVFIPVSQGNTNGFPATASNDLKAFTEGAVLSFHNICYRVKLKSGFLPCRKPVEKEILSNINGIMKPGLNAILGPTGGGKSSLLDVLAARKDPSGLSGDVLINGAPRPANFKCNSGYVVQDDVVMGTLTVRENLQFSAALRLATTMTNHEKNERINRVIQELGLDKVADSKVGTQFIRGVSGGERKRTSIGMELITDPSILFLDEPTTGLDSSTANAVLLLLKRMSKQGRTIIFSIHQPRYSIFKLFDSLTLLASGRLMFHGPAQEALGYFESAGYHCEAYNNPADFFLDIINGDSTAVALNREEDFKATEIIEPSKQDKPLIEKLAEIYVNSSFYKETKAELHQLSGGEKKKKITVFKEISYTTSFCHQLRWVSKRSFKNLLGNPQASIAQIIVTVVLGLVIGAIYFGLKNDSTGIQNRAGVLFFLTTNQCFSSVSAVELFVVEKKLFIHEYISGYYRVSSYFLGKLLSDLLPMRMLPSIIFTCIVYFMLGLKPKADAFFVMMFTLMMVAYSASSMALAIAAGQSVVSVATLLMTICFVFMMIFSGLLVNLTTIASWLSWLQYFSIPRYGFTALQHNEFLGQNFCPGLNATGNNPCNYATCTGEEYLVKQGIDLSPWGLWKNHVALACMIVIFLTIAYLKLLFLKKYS

ABCG2 [2] = target: T1, ABCG2; assay: radiolabelled drug efflux in ABCG2-overexpressing versus parental cells; assay type: cell-based; parameters: wild-type ABCG2 (R482) in HEK293 cells; NCI-H460/MX20 cells

SMILES	vanadate-sensitive ATPase assay in ABCG2 membrane vesicles; supported by [3H]-mi (ABCG2 [1])	radiolabelled drug efflux in ABCG2-overexpressing versus parental cells (ABCG2 [2])
Cc1c(NC(=O)OC[C@@H]2COCCN2)cn2ncnc(Nc3ccc4c(cnn4Cc4cccc(F)c4)c3)c12 [BMS-599626, [4-[[1-(3-fluorophenyl)methyl]-1H-indazol5-ylamino]-5-methylpyrrolo [2,1-f][1,2,4]triazin6-yl]carbamic acid, (3S)-3-morpholinylmethyl ester]	7.6 fold inhibition of ATPase activity at 3 µM	
O=C1c2c(O)ccc(O)c2C(=O)c2c(NCCNCCO)ccc(NCCNCCO)c21 [mitoxantrone]		ABCG2-overexpressing cell lines showed a significantly higher efflux activity compared to parental cell lines
